The values below are quoted from earlier work in patent publication US20220226307A1, “INHIBITION OF BETA-2 NICOTINIC ACETYLCHOLINE RECEPTORS TO TREAT ALZHEIMER'S DISEASE PATHOLOGY” (INSTITUT PASTEUR, priority 2016, published 2022).

Molecules are shown by their SMILES.

The subject of this series is ventral hippocampus alpha-7 nAChR and alpha-4 beta-2 nAChR. Conditions: local infusion in ventral hippocampus (Felix and Levin, 1997; Levin et al., 2002).

As for `CCN1C[C@]2(COC(=O)c3ccccc3N3C(=O)C[C@H](C)C3=O)CC[C@H](OC)[C@@]34[C@@H]5C[C@H]6[C@H](OC)[C@@H]5[C@](O)(C[C@@H]6OC)[C@@](O)([C@@H](OC)[C@H]23)[C@@H]14` [MLA, methyllycaconitine], the working memory result is recorded as “induces working memory impairments”.

As to `Br.CO[C@H]1CC=C2CCN3CCC4=C(CC(=O)OC4)[C@]23C1` [DHβE, dihydro-β-erythroidine hydrobromide], the working memory entry was “induces working memory impairments”.
